Where only a bound is given, the exact number is not on record here.

The subject of assay [1] is Pseudomonas aeruginosa UI-18: Wild-type (PA-7). The assay is described as follows: MIC determination (CLSI), strain PA-7. The conditions noted are these: strain PA-7; unit assumed. It is filed as cell-based. The method in brief:
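Strain tested was P. aeruginosa UI-18, a wild-type isolate labelled PA-7. Minimum inhibitory concentrations followed CLSI dilution methodology for aerobically growing bacteria (M7-A7, M100-S18).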

The subject of assay [2] is Escherichia coli EC-1: VOGEL, mouse virulent. Nature of the assay: MIC determination (CLSI), strain EC-1. Format: cell-based. The conditions noted are these: strain EC-1; unit assumed. Summed up: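 The mouse-virulent VOGEL isolate of E. coli, EC-1, served as test organism. Minimum inhibitory concentration was measured by CLSI dilution methodology (M7-A7; M100-S18 standards).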

Regarding `C[C@@](CCn1ccc(-c2ccc(OCC3CCN(C(=O)CO)CC3)cc2)cc1=O)(C(=O)NO)S(C)(=O)=O` [Example 311, (2R)-4-[4-{4-[(1-glycoloylpiperidin-4-yl)methoxy]phenyl}-2-oxopyridin-1(2H)-yl]-N-hydroxy-2-methyl-2-(methylsulfonyl)butanamide], the PA-7 (MIC) in assay [1] was 4 µg/mL. The same compound displayed an EC-1 (MIC) in assay [2] of 1 µg/mL.

Regarding `C[C@@](CCn1ccc(-c2ccc(OCCC3CCN(C(=O)CO)CC3)cc2)cc1=O)(C(=O)NO)S(C)(=O)=O` [Example 312, (2R)-4-[4-{4-[2-(1-glycoloylpiperidin-4-yl)ethoxy]phenyl}-2-oxopyridin-1(2H)-yl]-N-hydroxy-2-methyl-2-(methylsulfonyl)butanamide], the PA-7 (MIC) in assay [1] amounted to 4 µg/mL. In addition, the EC-1 (MIC) in assay [2] was found to be 0.5 µg/mL.

In turn, `C[C@@](CCn1ccc(-c2ccc(OCCCC3CCN(C(=O)CO)CC3)cc2)cc1=O)(C(=O)NO)S(C)(=O)=O` [Example 313, (2R)-4-[4-{4-[3-(1-glycoloylpiperidin-4-yl)propoxy]phenyl}-2-oxopyridin-1(2H)-yl]-N-hydroxy-2-methyl-2-(methylsulfonyl)butanamide] returned a PA-7 (MIC) in assay [1] of 4 µg/mL. In assay [2], the EC-1 (MIC) was found to be 0.5 µg/mL.

`C[C@@](CCn1ccc(-c2ccc3cc(OCCO)ccc3c2)cc1=O)(C(=O)NO)S(C)(=O)=O` [Example 314, (2R)-N-hydroxy-4-{4-[6-(2-hydroxyethoxy)-2-naphthyl]-2-oxopyridin-1(2H)-yl}-2-methyl-2-(methylsulfonyl)butanamide] displayed a PA-7 (MIC) in assay [1] of 1 µg/mL. For the same compound, in assay [2], the EC-1 (MIC) was 0.5 µg/mL.

With `C[C@@](CCn1ccc(-c2ccc3cc(CO)ccc3c2)cc1=O)(C(=O)NO)S(C)(=O)=O` [Example 315, (2R)-N-hydroxy-4-{4-[6-(hydroxymethyl)-2-naphthyl]-2-oxopyridin-1(2H)-yl}-2-methyl-2-(methylsulfonyl)butanamide], the PA-7 (MIC) in assay [1] turned out to be 1 µg/mL. The compound further showed an EC-1 (MIC) in assay [2] of 0.5 µg/mL.

In assay [1], `C[C@@](CCn1ccc(-c2ccc3ncc(F)cc3c2)cc1=O)(C(=O)NO)S(C)(=O)=O` [Example 316, (2R)-4-[4-(3-fluoroquinolin-6-yl)-2-oxopyridin-1(2H)-yl]-N-hydroxy-2-methyl-2-(methylsulfonyl)butanamide] had a PA-7 (MIC) of 2 µg/mL. Moreover, the EC-1 (MIC) in assay [2] came to 4 µg/mL.

In turn, `COc1ccc(-c2ccn(CC[C@](C)(C(=O)NO)S(C)(=O)=O)c(=O)c2)cc1F` [Example 317, (2R)-4-[4-(3-fluoro-4-methoxyphenyl)-2-oxopyridin-1(2H)-yl]-N-hydroxy-2-methyl-2-(methylsulfonyl)butanamide] had a PA-7 (MIC) in assay [1] of 1 µg/mL. In assay [2], this compound had an EC-1 (MIC) of 2 µg/mL.

On to `C[C@@](CCn1ccc(-c2ccc(OC[C@H]3CC[C@H](O)CC3)c(F)c2)cc1=O)(C(=O)NO)S(C)(=O)=O` [Example 318, (2R)-4-[4-{3-fluoro-4-[(trans-4-hydroxycyclohexyl)methoxy]phenyl}-2-oxopyridin-1(2H)-yl]-N-hydroxy-2-methyl-2-(methylsulfonyl)butanamide], for which, in assay [1], the PA-7 (MIC) came out at 1 µg/mL. In assay [2], this compound had an EC-1 (MIC) of 0.25 µg/mL.

For the compound `C[C@@](CCn1ccc(-c2ccc(SCCCCO)cc2)cc1=O)(C(=O)NO)S(C)(=O)=O` [Example 319], the PA-7 (MIC) in assay [1] is 1 µg/mL. Further, the EC-1 (MIC) in assay [2] is 0.25 µg/mL.

For the compound `CC(=O)c1ccc(-c2ccn(CC[C@](C)(C(=O)NO)S(C)(=O)=O)c(=O)c2)c(F)c1` [Example 320], the PA-7 (MIC) in assay [1] amounted to 2 µg/mL. The EC-1 (MIC) in assay [2] was found to be 1 µg/mL.

With `C[C@@](CCn1ccc(-c2ccc(F)cc2F)cc1=O)(C(=O)NO)S(C)(=O)=O` [Example 321, (2R)-4-[4-(2,4-difluorophenyl)-2-oxopyridin-1(2H)-yl]-N-hydroxy-2-methyl-2-(methylsulfonyl)butanamide], the PA-7 (MIC) in assay [1] stood at 1 µg/mL. In assay [2], this compound yielded an EC-1 (MIC) of 1 µg/mL.

As for `Cc1ccc(-c2ccn(CC[C@](C)(C(=O)NO)S(C)(=O)=O)c(=O)c2)cc1F` [Example 322, (2R)-4-[4-(3-fluoro-4-methylphenyl)-2-oxopyridin-1(2H)-yl]-N-hydroxy-2-methyl-2-(methylsulfonyl)butanamide], the PA-7 (MIC) in assay [1] is 0.5 µg/mL. In assay [2], this compound registered an EC-1 (MIC) of 0.5 µg/mL.

`Cc1cccc(-c2ccn(CC[C@](C)(C(=O)NO)S(C)(=O)=O)c(=O)c2)c1F` [Example 323, (2R)-4-[4-(2-fluoro-3-methylphenyl)-2-oxopyridin-1(2H)-yl]-N-hydroxy-2-methyl-2-(methylsulfonyl)butanamide]: the PA-7 (MIC) in assay [1] amounted to 0.5 µg/mL. Besides, the EC-1 (MIC) in assay [2] amounted to 0.25 µg/mL.

In assay [1], `Cc1c(OCCCCO)ccc(-c2ccn(CC[C@](C)(C(=O)NO)S(C)(=O)=O)c(=O)c2)c1F` [Example 324] displayed a PA-7 (MIC) of 2 µg/mL. The EC-1 (MIC) in assay [2] was determined as 0.25 µg/mL.

The compound `Cc1cc(-c2ccn(CC[C@](C)(C(=O)NO)S(C)(=O)=O)c(=O)c2)ccc1F` [Example 325, (2R)-4-[4-(4-fluoro-3-methylphenyl)-2-oxopyridin-1(2H)-yl]-N-hydroxy-2-methyl-2-(methylsulfonyl)butanamide] gave a PA-7 (MIC) in assay [1] of 0.5 µg/mL. This compound also yielded an EC-1 (MIC) in assay [2] of 0.5 µg/mL.

Regarding `CC1(O)CCC(Oc2ccc(-c3ccn(CC[C@](C)(C(=O)NO)S(C)(=O)=O)c(=O)c3)c(F)c2)CC1` (stereo partly drawn) [Example 326, (2R)-4-[4-{2-fluoro-4-[(4-hydroxy-4-methylcyclohexyl)oxy]phenyl}-2-oxopyridin-1(2H)-yl]-N-hydroxy-2-methyl-2-(methylsulfonyl)butanamide], in assay [1], the PA-7 (MIC) came out at 4 µg/mL. The compound further gave an EC-1 (MIC) in assay [2] of 0.5 µg/mL.

Consider `C[C@@](CCn1ccc(-c2ccc3[nH]c(=O)ccc3c2)cc1=O)(C(=O)NO)S(C)(=O)=O` [Example 327, (2R)-N-hydroxy-2-methyl-2-(methylsulfonyl)-4-[2-oxo-4-(2-oxo-1,2-dihydroquinolin-6-yl)pyridin-1(2H)-yl]butanamide], for which, in assay [1], the PA-7 (MIC) was over 64 µg/mL. This compound also came in with an EC-1 (MIC) in assay [2] of 4 µg/mL.

With `COc1ccc2cc(-c3ccn(CC[C@](C)(C(=O)NO)S(C)(=O)=O)c(=O)c3)ccc2n1` [Example 328, (2R)-N-hydroxy-4-[4-(2-methoxyquinolin-6-yl)-2-oxopyridin-1(2H)-yl]-2-methyl-2-(methylsulfonyl)butanamide], the PA-7 (MIC) in assay [1] came out at 1 µg/mL. For the same compound, the EC-1 (MIC) in assay [2] came out at 1 µg/mL.

With `C[C@@](CCn1ccc(-c2ccc(N3CCC(O)CC3)cc2)cc1=O)(C(=O)NO)S(C)(=O)=O` [Example 329, (2R)-N-hydroxy-4-{4-[4-(4-hydroxypiperidin-1-yl)phenyl]-2-oxopyridin-1(2H)-yl}-2-methyl-2-(methylsulfonyl)butanamide], the PA-7 (MIC) in assay [1] worked out at 4 µg/mL. For the same compound, in assay [2], the EC-1 (MIC) stood at 1 µg/mL.

With `C[C@@](CCn1ccc(-c2ccc3c(c2)OCCCO3)cc1=O)(C(=O)NO)S(C)(=O)=O` [Example 330, (2R)-4-[4-(3,4-dihydro-2H-1,5-benzodioxepin-7-yl)-2-oxopyridin-1(2H)-yl]-N-hydroxy-2-methyl-2-(methylsulfonyl)butanamide], the PA-7 (MIC) in assay [1] was found to be 4 µg/mL. The compound also had an EC-1 (MIC) in assay [2] of 0.5 µg/mL.

`C[C@@](CCn1ccc(-c2ccc(C(F)(F)F)nc2)cc1=O)(C(=O)NO)S(C)(=O)=O` [Example 331]: the PA-7 (MIC) in assay [1] is 32 µg/mL. Also, the EC-1 (MIC) in assay [2] was 0.25 µg/mL.

The values are drawn from patent US8846933B2, “N-link hydroxamic acid derivatives useful as antibacterial agents” (Pfizer Inc., priority 2009, dated 2014).
